Biological target: EXON 20 Insertion(NPG) Ba/F3 Cell (Homo sapiens, UniProt P00533, INS772GNP, cells depend on it)
Experiment: Measurement of cancer cell growth inhibitory effect (MTT assay)
Assay type: cell-based, Murine
Conditions: Ba/F3 cells expressing EGFR with NPG added at D770_N771, 72 hours treatment, read at 595 nm, read-out: EXON 20 Insertion(NPG) Ba/F3 Cell(IC50)
Source text: Since there is no commercially available lung cancer cell line with EGFR insertion mutation, a method of inserting 3 to 4 amino acids at each site using site direct mutagenesis in a wild type EGFR expression vector was attempted. In the present invention, first, a vector with three amino acids of NPG added to the D770_N771 site with the highest frequency was used, and Ba/F3 cell line was used for expression of these genes.
When the oncogenic mutant EGFR is expressed, dependence on the mutant EGFR for cell growth and apoptosis occurs without IL-3. Therefore, substances that show effective inhibition of mutant EGFR suppress cell growth and induce apoptosis, so the anticancer effect of cells was analyzed through MTT assay.
1×10^4 cells of the previously constructed stable cells were put into a 96 well plate and incubated overnight, and then the compound of Example was dose dependently treated. After 72 hours, MTT reagent was added, and after 3 hours stop buffer (10% SDS) was added. After 24 hours of incubation, the results were analyzed by reading at 595 nm. […] As a control drug, Mobocertinib was used.

Chain of EXON 20 Insertion(NPG) Ba/F3 Cell (P00533 with tags, fused parts or gaps INS772GNP): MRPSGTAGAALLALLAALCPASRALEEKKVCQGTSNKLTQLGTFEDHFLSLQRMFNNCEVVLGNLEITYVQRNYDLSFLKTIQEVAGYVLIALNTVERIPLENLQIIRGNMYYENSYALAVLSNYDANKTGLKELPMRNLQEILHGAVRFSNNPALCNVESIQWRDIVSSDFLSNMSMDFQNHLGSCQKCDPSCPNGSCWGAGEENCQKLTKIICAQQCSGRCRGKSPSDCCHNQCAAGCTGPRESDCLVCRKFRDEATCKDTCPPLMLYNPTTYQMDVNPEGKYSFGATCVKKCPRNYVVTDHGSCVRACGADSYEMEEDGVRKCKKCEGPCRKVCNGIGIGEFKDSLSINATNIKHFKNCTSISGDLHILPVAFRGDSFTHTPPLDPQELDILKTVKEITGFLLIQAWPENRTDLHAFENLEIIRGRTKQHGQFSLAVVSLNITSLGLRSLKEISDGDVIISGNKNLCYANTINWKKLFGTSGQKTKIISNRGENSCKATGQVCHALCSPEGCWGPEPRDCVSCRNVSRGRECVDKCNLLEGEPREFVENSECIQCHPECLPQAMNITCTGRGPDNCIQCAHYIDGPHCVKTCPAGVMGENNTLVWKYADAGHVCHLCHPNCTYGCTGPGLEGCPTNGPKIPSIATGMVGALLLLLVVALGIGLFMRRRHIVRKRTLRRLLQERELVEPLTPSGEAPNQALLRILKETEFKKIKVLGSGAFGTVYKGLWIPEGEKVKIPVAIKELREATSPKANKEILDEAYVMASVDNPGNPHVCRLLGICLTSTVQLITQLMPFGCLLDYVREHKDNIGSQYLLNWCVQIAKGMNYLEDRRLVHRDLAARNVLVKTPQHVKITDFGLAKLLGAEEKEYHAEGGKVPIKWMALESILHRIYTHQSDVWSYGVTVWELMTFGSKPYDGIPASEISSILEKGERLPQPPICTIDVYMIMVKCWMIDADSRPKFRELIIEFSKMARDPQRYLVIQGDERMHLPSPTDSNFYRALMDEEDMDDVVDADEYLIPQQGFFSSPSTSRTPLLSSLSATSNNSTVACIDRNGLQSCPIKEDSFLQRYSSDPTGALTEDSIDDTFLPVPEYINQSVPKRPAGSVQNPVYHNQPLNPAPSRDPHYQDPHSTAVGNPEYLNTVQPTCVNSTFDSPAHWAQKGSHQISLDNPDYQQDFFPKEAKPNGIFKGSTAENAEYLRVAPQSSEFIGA

Row | SMILES | GI50
1 | C=CC(=O)Nc1cc(Nc2cc(Nc3ccccc3-c3ccn(C)n3)ncn2)c(OC(C)C)cc1N(C)CCN(C)C [Example 3, N-(2-((2-(dimethylamino)ethyl)(methyl)amino)-4-isopropoxy-5-((6-((2-(1-methyl-1H-pyrazol-3-yl)phenyl)amino)pyrimidin-4-yl)amino)phenyl)acrylamide] | 25 to 50 nM
2 | C=CC(=O)Nc1cc(Nc2cc(Nc3ccccc3-c3ccn(C)n3)ncn2)c(OCC)cc1N(C)CCN(C)C [Example 11] | 25 to 50 nM
3 | C=CC(=O)Nc1cc(Nc2ncc(C(=O)OCC)c(Nc3ccccc3-n3cccn3)n2)c(OC)cc1N(C)CCN(C)C [Example 21, ethyl 4-((2-(1H-pyrazol-1-yl)phenyl)amino)-2-((5-acrylamido-4-((2-(dimethylamino)ethyl)(methyl)amino)-2-methoxyphenyl)amino)pyrimidin-5-carboxylate] | 25 to 50 nM
4 | C=CC(=O)Nc1cc(Nc2ncc(Cl)c(Nc3ccccc3-c3ccn(C)n3)n2)c(OC)cc1N(C)CCN(C)C [Example 29, N-(5-((5-chloro-4-((2-(1-methyl-1H-pyrazol-3-yl)phenyl)amino)pyrimidin-2-yl)amino)-2-((2-(dimethylamino)ethyl)(methyl)amino)-4-methoxyphenyl)acrylamide] | < 25 nM
5 | C=CC(=O)Nc1cc(Nc2cc(Nc3ccccc3-c3ccn(C)n3)ncn2)c(OCC(F)(F)F)cc1N(C)CCN(C)C [Example 10, N-(2-((2-(diamethylamino)ethyl)(methyl)amino)-5-((6-((2-(1-methyl-1H-pyrazol-3-yl)phenyl)amino)pyrimidin-4-yl)amino)-4-(2,2,2-trifluoroethoxy)phenyl)acrylamide] | < 25 nM
6 | C=CC(=O)Nc1cc(Nc2ncc(Cl)c(Nc3ccccc3-c3ccn(C)n3)n2)c(OC)cc1N1CC[C@@H](N(C)C)C1 [Example 34, (R)-N-(5-((5-chloro-4-((2-(1-methyl-1H-pyrazol-3-yl)phenyl)amino)pyrimidin-2-yl)amino)-2-(3-(dimethylamino)pyrrolidin-1-yl)-4-methoxyphenyl)acrylamide] | 25 to 50 nM
7 | C=CC(=O)Nc1cc(Nc2ncc(C(=O)OC(C)C)c(Nc3ccccc3-c3ccn(C)n3)n2)c(OC)cc1N(C)[C@H]1CCN(C)C1 [Example 28, Isopropyl(S)-2-((5-acrylamido-2-methoxy-4-(methyl(1-methylpyrrolidin-3-yl)amino)phenyl)amino)-4-((2-(1-methyl-1H-pyrazol-3-yl)phenyl)amino)pyrimidin-5-carboxylate] | 25 to 50 nM
8 | C=CC(=O)Nc1cc(Nc2cc(Nc3ccccc3-n3cccn3)ncn2)c(OC)cc1N1C2CCC1COC2 [Example 39, N-(5-((6-((2-(1H-pyrazol-1-yl)phenyl)amino)pyrimidin-4-yl)amino)-2-(3-oxa-8-azabicyclo[3.2.1]octan-8-yl)-4-methoxyphenyl)acrylamide] | 25 to 50 nM
9 | C=CC(=O)Nc1cc(Nc2ncc(C(=O)OCC)c(Nc3ccccc3-c3ccn(C)n3)n2)c(OC)cc1N(C)CCN(C)C [Example 20, ethyl 2-((5-acrylamido-4-((2-(dimethylamino)ethyl)(methyl)amino)-2-methoxyphenyl)amino)-4-((2-(1-methyl-1H-pyrazol-3-yl)phenyl)amino)pyrimidin-5-carboxylate] | 25 to 50 nM
10 | C=CC(=O)Nc1cc(Nc2ncc(Cl)c(Nc3ccccc3-c3ccn(C)n3)n2)c(OC)cc1N1CC[C@H](N(C)C)C1 [Example 33, (S)-N-(5-((5-chloro-4-((2-(1-methyl-1H-pyrazol-3-yl)phenyl)amino)pyrimidin-2-yl)amino)-2-(3-(dimethylamino)pyrrolidin-1-yl)-4-methoxyphenyl)acrylamide] | 25 to 50 nM
11 | C=CC(=O)Nc1cc(Nc2ncc(C(F)(F)F)c(Nc3ccccc3-c3ccn(C)n3)n2)c(OC)cc1N(C)CCN(C)C [Example 15, N-(2-((2-(dimethylamino)ethyl)(methyl)amino)-4-methoxy-5-((4-((2-(1-methyl-1H-pyrazol-3-yl)phenyl)amino)-5-(trifluoromethyl)pyrimidin-2-yl)amino)phenyl)acrylamide] | 25 to 50 nM
12 | C=CC(=O)Nc1cc(Nc2ncc(C(=O)OC(C)C)c(Nc3ccccc3-c3ccn(C)n3)n2)c(OC)cc1N1CC[C@@H](N(C)C)C1 [Example 26, Isopropyl(R)-2-((5-acrylamido-4-(3-(dimethylamino)pyrrolidin-1-yl)-2-methoxyphenyl)amino)-4-((2-(1-methyl-1H-pyrazol-3-yl)phenyl)amino)pyrimidin-5-carboxylate] | 25 to 50 nM
13 | C=CC(=O)Nc1cc(Nc2cc(Nc3ccccc3-c3ccn(C)n3)ncn2)c(OC)cc1N1CC[C@@H](N(C)C)C1 [Example 7, (R)-N-(2-(3-(dimethylamino)pyrrolidin-1-yl)-4-methoxy-5-((6-((2-(1-methyl-1H-pyrazol-3-yl)phenyl)amino)pyrimidin-4-yl)amino)phenyl)acrylamide] | 25 to 50 nM
14 | C=CC(=O)Nc1cc(Nc2cc(Nc3ccccc3-c3ccn(C)n3)ncn2)c(OC)cc1N1CCN(C)CC1 [Example 4, N-(4-methoxy-5-((6-((2-(1-methyl-1H-pyrazol-3-yl)phenyl)amino)pyrimidin-4-yl)amino)-2-(4-methylpiperizin-1-yl)phenyl)acrylamide] | 25 to 50 nM
15 | C=CC(=O)Nc1cc(Nc2ncc(C#N)c(Nc3ccccc3-c3ccn(C)n3)n2)c(OC)cc1N(C)CCN(C)C [Example 13, N-(5-((5-cyano-4-((2-(1-methyl-1H-pyrazol-3-yl)phenyl)amino)pyrimidin-2-yl)amino)-2-((2-(dimethylamino)ethyl)(methyl)amino)-4-methoxyphenyl)acrylamide] | 25 to 50 nM
16 | C=CC(=O)Nc1cc(Nc2ncc(C(=O)OC(C)C)c(Nc3ccccc3-c3ccn(C)n3)n2)c(OC)cc1N1CC[C@H](N(C)C)C1 [Example 25, Isopropyl(S)-2-((5-acrylamido-4-(3-(dimethylamino)pyrrolidin-1-yl)-2-methoxyphenyl)amino)-4-((2-(1-methyl-1H-pyrazol-3-yl)phenyl)amino)pyrimidin-5-carboxylate] | 25 to 50 nM
17 | C=CC(=O)Nc1cc(Nc2ncc(Cl)c(Nc3ccccc3-c3ccn(C)n3)n2)c(OC)cc1N(C)[C@H]1CCN(C)C1 [Example 36, (S)-N-(5-((5-chloro-4-((2-(1-methyl-1H-pyrazol-3-yl)phenyl)amino)pyrimidin-2-yl)amino)-4-methoxy-2-(methyl(1-methylpyrrolidin-3-yl)amino)phenyl)acrylamide] | 25 to 50 nM
18 | C=CC(=O)Nc1cc(Nc2ncc(C)c(Nc3ccccc3-n3cccn3)n2)c(OC)cc1N(C)CCN(C)C [Example 14, N-(5-((4-((2-(1H-pyrazol-1-yl)phenyl)amino)-5-methylpyrimidin-2-yl)amino)-2-((2-(dimethylamino)ethyl)(methyl)amino)-4-methoxyphenyl)acrylamide] | 25 to 50 nM
19 | C=CC(=O)Nc1cc(Nc2cc(Nc3ccccc3-n3cccn3)ncn2)c(OC)cc1N(C)CCN(CC)CC [Example 37, N-(5-((6-((2-(1H-pyrazol-1-yl)phenyl)amino)pyrimidin-4-yl)amino)-2-((2-(diethylamino)ethyl)(methyl)amino)-4-methoxyphenyl)acrylamide] | 25 to 50 nM
20 | C=CC(=O)Nc1cc(Nc2ncc(C(=O)OC(C)C)c(Nc3ccccc3-c3ccn(C)n3)n2)c(OC)cc1N(C)CCN(C)C [Example 16, Isopropyl 2-((5-acrylamido-4-((2-(dimethylamino)ethyl)(methyl)amino)-2-methoxyphenyl)amino)-4-((2-(1-methyl-1H-pyrazol-3-yl)phenyl)amino)pyrimidin-5-carboxylate] | < 25 nM
21 | C=CC(=O)Nc1cc(Nc2ncc(C(=O)OC)c(Nc3ccccc3-c3ccn(C)n3)n2)c(OC)cc1N(C)CCN(C)C [Example 18, methyl 2-((5-acrylamido-4-((2-(dimethylamino)ethyl)(methyl)amino)-2-methoxyphenyl)amino)-4-((2-(1-methyl-1H-pyrazol-3-yl)phenyl)amino)pyrimidin-5-carboxylate] | 25 to 50 nM
22 | C=CC(=O)Nc1cc(Nc2cc(Nc3ccccc3-n3cccn3)ncn2)c(OC)cc1N1CC2COCC2C1 (stereo not shown) [Example 38, N-(5-((6-((2-(1H-pyrazol-1-yl)phenyl)amino)pyrimidin-4-yl)amino)-4-methoxy-2-(tetrahydro-1H-furo[3,4-c]pyrrol-5 (3H)-yl)phenyl)acrylamide] | 25 to 50 nM
23 | C=CC(=O)Nc1cc(Nc2cc(Nc3ccccc3-c3ccn(C)n3)ncn2)c(OC)cc1N(C)[C@@H]1CCN(C)C1 [Example 8, (R)-N-(4-methoxy-2-(methyl(1-methylpyrrolidin-3-yl)amino)-5-((6-((2-(1-methyl-1H-pyrazol-3-yl)phenyl)amino)pyrimidin-4-yl)amino)phenyl)acrylamide] | 25 to 50 nM
24 | C=CC(=O)Nc1cc(Nc2ncc(C(=O)OC(C)C)c(Nc3ccccc3-c3ccn(C)n3)n2)c(OC)cc1N(C)[C@@H]1CCN(C)C1 [Example 27, Isopropyl(R)-2-((5-acrylamido-2-methoxy-4-(methyl(1-methylpyrrolidin-3-yl)amino)phenyl)amino)-4-((2-(1-methyl-1H-pyrazol-3-yl)phenyl)amino)pyrimidin-5-carboxylate] | 25 to 50 nM
25 | C=CC(=O)Nc1cc(Nc2ncc(Cl)c(Nc3ccccc3-c3ccn(C)n3)n2)c(OC)cc1N(C)[C@@H]1CCN(C)C1 [Example 35, (R)-N-(5-((5-chloro-4-((2-(1-methyl-1H-pyrazol-3-yl)phenyl)amino)pyrimidin-2-yl)amino)-4-methoxy-2-(methyl(1-methylpyrrolidin-3-yl)amino)phenyl)acrylamide] | 25 to 50 nM
